Laboratory results from patent US20240300959A1, “BALASUBRAMIDE DERIVATIVE AND USE THEREOF IN PREPARATION OF MEDICINE FOR TREATING ACUTE LUNG INJURY” (Guangdong Pharmaceutical University, priority 2023, published 2024).

Legend:
[1] = tested on: RAW264.7 cells; experiment: Cytotoxicity test, CCK-8 cell viability of RAW264.7 cells (24 h); assay type: cell-based, mice; conditions: 10 μM, RAW264.7 cell viability
Method: RAW264.7 cells were inoculated into a 96-well plate at a density of 1×10^5 per well. When the cell density was 70%-80%, the RAW264.7 cells were pretreated with 10 mM working solutions prepared from 18 balasubramide derivatives at a final concentration of 10 μM for 24 h, and then the cell viability was determined by a CCK-8 method.

[2] = tested on: TNF-α in RAW264.7 macrophages stimulated by lipopolysaccharide; experiment: TNF-α ELISA in cell supernatant of LPS-stimulated RAW264.7 macrophages; assay type: cell-based, mice; conditions: Mus musculus, RAW264.7, 2 h, 10 μM, 3 h pretreatment, LPS 100 ng/mL 2 h, RAW264.7; read-out: Percentage of TNF-α in a model group (%)
Method: RAW264.7 cells were inoculated into a 96-well plate at a density of 1×10^5 per well. When the cell density was 70%-80%, 18 balasubramide derivatives were prepared into 10 mM working solutions with DMSO, respectively, and then used to pretreat mononuclear macrophages RAW264.7 of mice at a final concentration of 10 μM. After 3 h, lipopolysaccharide (LPS, 100 ng/mL) was added into all wells for action for 2 h except for a control group. A supernatant was collected for later use, and the expression level of an inflammatory factor TNF-α in the cell supernatant was detected according to an operation instruction of a commercial ELISA kit.
RAW264.7 cells were inoculated into a 96-well plate at a density of 1×10^5 per well. When the cell density was 70%-80%, the RAW264.7 cells were pretreated with (+)3C-20 ([…]). After 3 h, lipopolysaccharide (LPS, 100 ng/mL) was added into all wells for action for 2 h except for a control group. The expression level of an inflammatory factor TNF-α in a cell supernatant was detected according to an operation instruction of a commercial ELISA kit, and the cell viability at different administration concentrations of (+)3C-20 was determined according to an operation instruction of a CCK-8 kit.

[3] = tested on: mice with sepsis and lung injury caused by intraperitoneal injection of lipopolysaccharide; experiment: Acute lung injury caused by sepsis (intraperitoneal injection of lipopolysaccharide); assay type: in vivo, ICR mice
Method: Administration and grouping of animals: Male ICR mice were used as experimental animals, which were randomly divided into a control group, a model group, a positive administration group and administration groups according to the body weight. The control group and the model group were administered with a solvent by intraperitoneal injection (the solvent was prepared from DMSO, Kolliphor HS15 and Saline at a ratio of 1:2:7), the positive administration group was administered with 5 mg/kg dexamethasone (DEX) by intraperitoneal injection, and the administration groups were administered with (+)3C-20 at a concentration of 10 mg/kg and 50 mg/kg, respectively, by intraperitoneal injection. The dexamethasone and the (+)3C-20 were dissolved in the above solvent and were clear and transparent. The administration was continued for 3 days. 2 h after the last administration, all the other groups were administered with LPS (10 mg/kg) by intraperitoneal injection while the control group was administered with an equal volume of normal saline by intraperitoneal injection. Body weight and lung index: The mice were weighed and randomly divided on day 1 and continuously weighed for 3 days before administration, and growth conditions of the mice were measured by statistics. The mice were administered with LPS by intraperitoneal injection 2 h after administration on day 3, then the mice were dissected 6 h later, and the lungs were taken, weighed and recorded.
On day 3, 6 h after the intraperitoneal injection of LPS, whole blood was collected from eye sockets and then subjected to centrifugation to prepare serum, and the serum was frozen at −80° C. The lungs were subjected to perfusion with PBS and fixed by paraformaldehyde, and the fixed lungs were stained with hematoxylin-eosin (H&E) after dehydration, paraffin embedding and sectioning. The serum was tested by a commercial TNF-α ELISA kit. Histopathological results and data statistics are shown in FIG. 7-1, FIG. 7-2 and Table 7.
A small amount of frozen lung tissues were taken and fully ground, and the expression of inflammation related genes in the lung tissues was detected by an RT-PCR technology according to an operation instruction of an RNA extraction kit.

[4] = tested on: mice with acute lung injury caused by intratracheal instillation of lipopolysaccharide; experiment: Acute lung injury caused by lung exposure to bacterial endotoxin (intratracheal instillation of LPS); assay type: in vivo, ICR mice
Method: Grouping, administration and modeling of animals: Male ICR mice were used as experimental animals, which were randomly divided into a control group, a model group, a positive administration group and administration groups according to the body weight. The control group and the model group were administered with a solvent by intraperitoneal injection (the solvent was prepared from DMSO, Kolliphor HS15 and Saline at a ratio of 1:2:7), the positive administration group was administered with 5 mg/kg dexamethasone by intraperitoneal injection, and the administration groups were administered with (+)3C-20 at a concentration of 10 mg/kg and 50 mg/kg, respectively, by intraperitoneal injection. The dexamethasone and the (+)3C-20 were dissolved in the above solvent and were clear and transparent. The administration was continued for 3 days. 2 h after the last administration, the mice were anesthetized with 2.5% isoflurane, necks were disinfected, cortices of the necks were cut, and tracheae were separated. All other groups were administered with 50 μL of 10 mg/mL LPS (LPS dissolved in Saline) at a dose of 20 mg/kg by instillation while the control group was administered with 50 μL of Saline by intratracheal instillation (it.), and the cortices were sutured. 6 h after the instillation of LPS, the mice were sacrificed, and serum and lung tissues were taken for later use. Body weight and lung index: The mice were weighed and randomly divided on day 1 and continuously weighed for 3 days before administration. 2 h after the last administration, the mice were administered with 50 μL of […] LPS by intratracheal instillation. 6 h later, the mice were dissected, and the lungs were taken and weighed.
On day 3, 6 h after the intratracheal instillation of LPS, a part of the mice were subjected to perfusion with PBS and treated with paraformaldehyde to fix the right lobe of the lungs, another part of the mice were dissected to obtain lungs, and the lungs were frozen with liquid nitrogen for later use. The fixed right lungs were stained with hematoxylin-eosin (H&E) after dehydration, paraffin embedding and sectioning. 40 mg of the frozen lungs were cut, 300 μL of an RIPA lysis buffer was added thereto and homogenized by starting for 45 s and stopping for 15 s at a frequency of 60 Hz in 4 cycles for full lysis, and then centrifuged at 12,000 rpm at 4° C. A supernatant was taken, the protein concentration was calibrated and adjusted with a BCA protein assay kit, and then the level of an inflammatory factor TNF-α in lung tissue homogenates of various groups was detected by a commercial TNF-α ELISA kit. Results are shown in Table 10, FIG. 10-1 and FIG. 10-2.
A small amount of frozen lung tissues were taken, a Trizol lysis reagent was added thereto and fully ground, RNA was extracted according to an operation instruction of an RNA extraction kit, and the expression of inflammation related genes in the lung tissues was detected by an RT-PCR technology. Experimental results are shown in Table 11, FIG. 11-1 and FIG. 11-2.

[5] = 5 mg/kg i.p., lung tissue RT-PCR, i.p. LPS
[6] = 5 mg/kg intraperitoneal, i.p. LPS sepsis model, in g (unit assumed)
[7] = 5 mg/kg i.p., lung tissue RT-PCR, intratracheal LPS
[8] = 5 mg/kg intraperitoneal, intratracheal LPS model, in g (unit assumed)

SMILES: CCOc1ccc2[nH]c3c(c2c1)CCNC(=O)[C@@H](OC(=O)CCc1ccc(C(F)(F)F)cc1)[C@@H]3c1ccc(C(F)(F)F)cc1 [(+)-D7a]
- Percentage of CCK-8 in a model group (%) [1]: 106.69 ± 1.21%
- activity at 10 µM [2]: 97.7 ± 1.5%

SMILES: O=C(CCc1ccc(C(F)(F)F)cc1)O[C@@H]1C(=O)NCCc2c([nH]c3ccc(OC(=O)c4ccc([N+](=O)[O-])cc4)cc23)[C@H]1c1ccc(C(F)(F)F)cc1 [(+)-D7c]
- Percentage of CCK-8 in a model group (%) [1]: 109.17 ± 0.16%
- activity at 10 µM [2]: 74.5 ± 3.55%

SMILES: Cn1c2c(c3ccccc31)CCNC(=O)[C@@H](OC(=O)CCc1ccc(C(F)(F)F)cc1)[C@@H]2c1ccc(C(F)(F)F)cc1 [(+)-c1]
- Percentage of CCK-8 in a model group (%) [1]: 105.02 ± 2.84%
- activity at 10 µM [2]: 83.4%

SMILES: CCn1c2c(c3ccccc31)CCNC(=O)[C@@H](OC(=O)CCc1ccc(C(F)(F)F)cc1)[C@@H]2c1ccc(C(F)(F)F)cc1 [(+)-c2]
- Percentage of CCK-8 in a model group (%) [1]: 102.17 ± 2.74%
- activity at 10 µM [2]: 101 ± 1.21%

SMILES: CCCn1c2c(c3ccccc31)CCNC(=O)[C@@H](OC(=O)CCc1ccc(C(F)(F)F)cc1)[C@@H]2c1ccc(C(F)(F)F)cc1 [(+)-c3]
- Percentage of CCK-8 in a model group (%) [1]: 110.41 ± 0.54%
- activity at 10 µM [2]: 81.8 ± 1.11%

SMILES: C=CCn1c2c(c3ccccc31)CCNC(=O)[C@@H](OC(=O)CCc1ccc(C(F)(F)F)cc1)[C@@H]2c1ccc(C(F)(F)F)cc1 [(+)-c4]
- Percentage of CCK-8 in a model group (%) [1]: 110.28 ± 1.56%
- activity at 10 µM [2]: 96.1 ± 1.48%

SMILES: CC(C)(C)OC(=O)N[C@H](CC(=O)O[C@@H]1C(=O)NCCc2c([nH]c3ccccc23)[C@H]1c1ccc(C(F)(F)F)cc1)c1ccc(C(F)(F)F)cc1 [(+)-c5]
- Percentage of CCK-8 in a model group (%) [1]: 110.66 ± 0.55%
- activity at 10 µM [2]: 71.77 ± 0.56%

SMILES: O=C1NCCc2c([nH]c3ccc(Br)cc23)[C@@H](c2ccccc2)[C@@H]1O [B001]
- Percentage of CCK-8 in a model group (%) [1]: 108.8 ± 2.72%
- activity at 10 µM [2]: 71.9 ± 3.5%

SMILES: C[C@@H]1C[C@H]2[C@@H]3CCC4=CC(=O)C=C[C@]4(C)[C@@]3(F)[C@@H](O)C[C@]2(C)[C@@]1(O)C(=O)CO [Dexamethasone, dexamethasone, reference compound]
- Content of TNF-α in serum (% of Model) ([3]; 5 mg/kg i.p., 6 h after i.p. LPS): 40.09 ± 2.26 % of Model
- Area percentage of alveolar cells (%) ([3]; 5 mg/kg i.p., 6 h after i.p. LPS, H&E lung sections): 32.2 ± 0.95 %
- Change multiple of IL-1β [3, 5]: 8.65 ± 1.04
- Change multiple of IL-6 [3, 5]: 40.56 ± 7.55
- Change multiple of TNF-α [3, 5]: 6.09 ± 0.82
- Change multiple of iNOS [3, 5]: 2.61 ± 0.39
- Lung index (%) ([3]; 5 mg/kg intraperitoneal 3 days, 6 h after i.p. LPS 10 mg/kg): 0.649 ± 0.01 %
- Body weight (Day 1) [3, 6]: 25.11 ± 0.52
- Body weight (Day 2) [3, 6]: 26.23 ± 0.38
- Body weight (Day 3) [3, 6]: 26.97 ± 0.45
- Content of TNF-α in a lung tissue homogenate (% of Model) ([4]; 5 mg/kg i.p., 6 h after intratracheal LPS): 54.882 ± 6.836 % of Model
- Area percentage of alveolar cells (%) ([4]; 5 mg/kg i.p., 6 h after intratracheal LPS, H&E lung sections): 34.322 ± 2.452 %
- Change multiple of COX-2 [4, 7]: 2.75 ± 0.24
- Change multiple of IL-1β [4, 7]: 12.38 ± 1.28
- Change multiple of IL-6 [4, 7]: 14.75 ± 2.71
- Change multiple of TNF-α [4, 7]: 18.63 ± 2.26
- Change multiple of iNOS [4, 7]: 10.02 ± 1.78
- Lung index (%) ([4]; 5 mg/kg intraperitoneal 3 days, 6 h after intratracheal LPS): 0.591 ± 0.008 %
- Body weight (Day 1) [4, 8]: 27.51 ± 0.11
- Body weight (Day 2) [4, 8]: 28.75 ± 0.17
- Body weight (Day 3) [4, 8]: 29.48 ± 0.17
